Laboratory results: ChEMBL document CHEMBL5331106, “Investigation into the Mechanism of Action of the Tuberculosis Drug Candidate SQ109 and Its Metabolites and Analogues in Mycobacteria” (J Med Chem, 2023)

What was measured:
[1] = test system: Mycolicibacterium smegmatis; assay: Antimycobacterial activity against Mycobacterium smegmatis assessed as inhibition of mycobacterial growth incubated for 48 hrs in presence of 50 uM undecaprenyl phosphate; type: functional, organism-based
[2] = Inhibition of Escherichia coli undecaprenyl diphosphate synthase
[3] = test system: Mycolicibacterium smegmatis; assay: Antimycobacterial activity against Mycobacterium smegmatis assessed as inhibition of mycobacterial growth incubated for 48 hrs in presence of 50 uM Upp; type: functional, organism-based
[4] = test system: Mycolicibacterium smegmatis; assay: Antimycobacterial activity against Mycobacterium smegmatis assessed as inhibition of mycobacterial growth incubated for 48 hrs in presence of 100 uM menaquinone-7; type: functional, organism-based
Cell membrane = assay: Uncoupling activity in Escherichia coli inverted membrane vesicles assessed as collapse of pH gradient by measuring increase in ACMA fluorescence intensity by fluorometric analysis; type: subcellular
[5] = test system: Mycolicibacterium smegmatis; assay: Antimycobacterial activity against Mycobacterium smegmatis assessed as inhibition of mycobacterial growth incubated for 48 hrs in presence of 100 uM undecaprenyl phosphate; type: functional, organism-based
[6] = test system: Mycolicibacterium smegmatis; assay: Antimycobacterial activity against Mycobacterium smegmatis assessed as inhibition of mycobacterial growth incubated for 48 hrs; type: functional, organism-based
[7] = biological target: T1, Trehalose monomycolate exporter MmpL3 (Mycolicibacterium smegmatis, UniProt A0QP27); assay: Binding affinity to Mycobacterium smegmatis MmpL3 by surface plasmon resonance assay
T1 sequence (A0QP27 whole entry): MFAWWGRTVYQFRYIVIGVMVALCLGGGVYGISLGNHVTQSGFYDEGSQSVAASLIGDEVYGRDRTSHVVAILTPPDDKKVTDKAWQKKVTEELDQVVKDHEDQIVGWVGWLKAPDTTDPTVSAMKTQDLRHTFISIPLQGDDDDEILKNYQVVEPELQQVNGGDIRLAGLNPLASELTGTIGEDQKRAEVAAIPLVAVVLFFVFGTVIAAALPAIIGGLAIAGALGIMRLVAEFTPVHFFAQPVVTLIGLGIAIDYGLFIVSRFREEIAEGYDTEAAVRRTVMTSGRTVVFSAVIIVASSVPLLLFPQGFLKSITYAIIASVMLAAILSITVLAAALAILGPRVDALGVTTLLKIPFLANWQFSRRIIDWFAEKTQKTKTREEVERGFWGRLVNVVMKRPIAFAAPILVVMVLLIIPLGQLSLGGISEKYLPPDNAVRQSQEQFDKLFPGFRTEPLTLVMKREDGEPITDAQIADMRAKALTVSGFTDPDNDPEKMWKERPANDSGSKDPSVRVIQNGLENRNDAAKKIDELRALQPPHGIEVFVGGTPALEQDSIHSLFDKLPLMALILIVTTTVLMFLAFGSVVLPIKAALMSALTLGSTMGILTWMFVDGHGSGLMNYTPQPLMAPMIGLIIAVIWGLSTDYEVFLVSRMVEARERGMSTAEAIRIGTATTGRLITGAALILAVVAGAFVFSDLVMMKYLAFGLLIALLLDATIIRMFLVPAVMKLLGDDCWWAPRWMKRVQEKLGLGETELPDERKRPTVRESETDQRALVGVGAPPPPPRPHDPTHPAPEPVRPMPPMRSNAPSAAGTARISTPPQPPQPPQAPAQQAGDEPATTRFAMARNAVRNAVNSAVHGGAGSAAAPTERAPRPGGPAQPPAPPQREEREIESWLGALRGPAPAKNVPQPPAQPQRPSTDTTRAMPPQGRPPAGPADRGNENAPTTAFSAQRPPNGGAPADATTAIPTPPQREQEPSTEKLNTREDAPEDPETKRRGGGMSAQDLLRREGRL

[8] = biological target: T2, Undecaprenyl-diphosphatase (Escherichia coli (strain K12), UniProt P60932); assay: Inhibition of UppP in Escherichia coli using FPP as substrate pretreated for 20 mins followed by FPP addition and measured after 60 mins by malachite green based assay
T2 sequence (P60932 whole entry): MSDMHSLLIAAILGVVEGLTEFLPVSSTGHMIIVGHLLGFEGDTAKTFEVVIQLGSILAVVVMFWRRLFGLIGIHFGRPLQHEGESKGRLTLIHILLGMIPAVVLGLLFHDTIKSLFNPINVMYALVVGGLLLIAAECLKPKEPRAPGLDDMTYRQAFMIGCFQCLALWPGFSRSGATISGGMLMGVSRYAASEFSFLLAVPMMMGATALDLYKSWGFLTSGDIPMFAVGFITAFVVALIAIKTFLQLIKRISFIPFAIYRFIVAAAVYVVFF

[9] = Inhibition of Staphylococcus aureus dehydrosqualene synthase
[10] = biological target: T3, (2Z,6E)-farnesyl diphosphate synthase (Mycobacterium tuberculosis, UniProt P9WFF5); assay: Inhibition of Mycobacterium tuberculosis cis-farnesyl diphosphate synthase
T3 sequence (P9WFF5 whole entry): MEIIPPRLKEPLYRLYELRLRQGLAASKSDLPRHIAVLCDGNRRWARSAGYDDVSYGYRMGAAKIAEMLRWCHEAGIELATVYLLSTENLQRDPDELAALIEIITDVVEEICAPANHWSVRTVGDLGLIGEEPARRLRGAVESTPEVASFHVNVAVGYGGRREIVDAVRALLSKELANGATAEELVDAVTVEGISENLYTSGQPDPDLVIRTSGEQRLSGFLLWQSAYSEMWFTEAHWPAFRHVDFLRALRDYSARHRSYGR

[11] = test system: Mycolicibacterium smegmatis; assay: Antimycobacterial activity against Mycobacterium smegmatis assessed as inhibition of mycobacterial growth incubated for 48 hrs in presence of 200 uM undecaprenyl phosphate; type: functional, organism-based
[12] = test system: Mycolicibacterium smegmatis; assay: Antimycobacterial activity against Mycobacterium smegmatis assessed as inhibition of mycobacterial growth incubated for 48 hrs in presence of 25 uM menaquinone-4; type: functional, organism-based
[13] = Inhibition of Staphylococcus aureus undecaprenyl diphosphate synthase
[14] = test system: Mycolicibacterium smegmatis; assay: Antimycobacterial activity against Mycobacterium smegmatis assessed as inhibition of mycobacterial growth incubated for 48 hrs in presence of 50 uM menaquinone-7; type: functional, organism-based
[15] = test system: Mycolicibacterium smegmatis; assay: Antimycobacterial activity against Mycobacterium smegmatis assessed as inhibition of mycobacterial growth incubated for 48 hrs in presence of 200 uM menaquinone-4; type: functional, organism-based
[16] = test system: Mycolicibacterium smegmatis; assay: Antimycobacterial activity against Mycobacterium smegmatis assessed as inhibition of mycobacterial growth incubated for 48 hrs in presence of 25 uM undecaprenyl phosphate; type: functional, organism-based
[17] = test system: Mycolicibacterium smegmatis; assay: Rescue fold, ratio of IC50 for antimycobacterial activity against Mycobacterium smegmatis in presence of 100 uM menaquinone-7 to IC50 for antimycobacterial activity against Mycobacterium smegmatis; type: functional
[18] = test system: Mycobacterium tuberculosis; assay: Antimycobacterial activity against Mycobacterium tuberculosis HN878 assessed as inhibition of mycobacterial growth incubated for 5 days in presence of 50 uM undecaprenyl phosphate; type: functional, organism-based; details: HN878, 120 h
[19] = test system: Mycolicibacterium smegmatis; assay: Antimycobacterial activity against Mycobacterium smegmatis assessed as inhibition of mycobacterial growth incubated for 48 hrs in presence of 12.5 uM undecaprenyl phosphate; type: functional, organism-based
[20] = Inhibition of Staphylococcus aureus farnesyl diphosphate synthase
[21] = Inhibition of Plasmodium vivax geranylgeranyl diphosphate synthase
[22] = biological target: T4, Decaprenyl diphosphate synthase (Mycobacterium tuberculosis, UniProt P9WFF7); assay: Inhibition of Mycobacterium tuberculosis cis-decaprenyl diphosphate synthase
T4 sequence (P9WFF7 whole entry): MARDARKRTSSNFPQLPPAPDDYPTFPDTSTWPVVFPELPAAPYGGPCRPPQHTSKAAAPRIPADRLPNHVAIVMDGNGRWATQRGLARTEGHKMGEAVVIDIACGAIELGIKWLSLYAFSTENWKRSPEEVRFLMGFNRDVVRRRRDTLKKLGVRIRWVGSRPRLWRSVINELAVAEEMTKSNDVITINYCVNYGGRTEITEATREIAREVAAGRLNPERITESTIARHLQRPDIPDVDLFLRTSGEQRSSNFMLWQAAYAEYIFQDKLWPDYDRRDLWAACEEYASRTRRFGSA

[23] = test system: Mycolicibacterium smegmatis; assay: Antimycobacterial activity against Mycobacterium smegmatis assessed as inhibition of mycobacterial growth incubated for 48 hrs in presence of 50 uM menaquinone-4 and 50 uM undecaprenyl phosphate; type: functional, organism-based
[24] = test system: Mycolicibacterium smegmatis; assay: Rescue fold, ratio of IC50 for antimycobacterial activity against Mycobacterium smegmatis in presence of 200 uM menaquinone-4 to IC50 for antimycobacterial activity against Mycobacterium smegmatis; type: functional
[25] = test system: Mycolicibacterium smegmatis; assay: Rescue fold, ratio of IC50 for antimycobacterial activity against Mycobacterium smegmatis in presence of 50 uM undecaprenyl phosphate to IC50 for antimycobacterial activity against Mycobacterium smegmatis; type: functional
[26] = test system: Mycolicibacterium smegmatis; assay: Antimycobacterial activity against Mycobacterium smegmatis assessed as inhibition of mycobacterial growth incubated for 48 hrs in presence of 50 uM menaquinone-4; type: functional, organism-based
[27] = test system: Mycobacterium tuberculosis; assay: Antimycobacterial activity against Mycobacterium tuberculosis HN878 assessed as inhibition of mycobacterial growth incubated for 5 days; type: functional, organism-based; details: HN878, 120 h
[28] = biological target: T1, Trehalose monomycolate exporter MmpL3; assay: Binding affinity to C-terminal 10XHis-tagged Mycobacterium smegmatis mc2 155 MmpL3 expressed in Mycobacterium smegmatis mc2 155 cells by microscale thermophoresis analysis
[29] = Drug metabolism in Mycobacterium tuberculosis HN878 assessed as N1-(adamantan-1-yl)ethane-1,2-diamine metabolite formation at 10 uM incubated for 24 hrs by LC-MS analysis; type: ADME

Structure (SMILES): CC(C)=CCC/C(C)=C/CNCCNC1C2CC3CC(C2)CC1C3 (stereo not given) [SQ109]
- IC50 [1]: 16 µM
- IC50 [2]: ≥ 50 µM
- IC50 [3]: 1.4 µM
- IC50 [4]: 6.5 µM
- IC50 (Cell membrane): 2.3 µM
- IC50 [5]: 14 µM
- IC50 [6]: 1.5 µM
- Kd [7]: 400 µM
- IC50 [8]: 32 µM
- IC50 [9]: ≥ 50 µM
- IC50 [10]: ≥ 50 µM
- IC50 [11]: 14 µM
- IC50 [12]: 2.1 µM
- IC50 [13]: ≥ 50 µM
- IC50 [14]: 4.2 µM
- IC50 [15]: 4.8 µM
- IC50 [16]: 8.9 µM
- Ratio IC50 [17]: 3
- IC50 [18]: 6.1 µM
- IC50 [19]: 3.7 µM
- IC50 [20]: ≥ 50 µM
- IC50 [21]: ≥ 50 µM
- IC50 [22]: ≥ 50 µM
- IC50 [23]: 16 µM
- Ratio IC50 [24]: 2
- Ratio IC50 [25]: 6.4
- IC50 [26]: 2.9 µM
- IC50 [27]: 0.41 µM
- Kd [28]: 1.6 µM
- Drug metabolism [29]: Metabolite_Notdetected
